# In US4873253A, “Phenylalanine derivative and proteinase inhibitor” (Okamoto; Shosuke, priority 1987, dated 1989):
# pIC50: −log10 of the molar value. Structures can show the parent of a compound that is named as a salt. Where two headings read alike, the source gives them in different places.
# What was measured:
# [1] = molecular target: human plasma kallikrein (Homo sapiens, UniProt P03952); experiment: Anti-plasma kallikrein activity: inhibition of S-2302 decomposition; type: biochemical; details: Table 2; substrate S-2302, pH 7.8, 37° C.; read-out: Plasma Kallikrein S-2302 I50
# Sequence of human plasma kallikrein (P03952 391-638 limits assumed): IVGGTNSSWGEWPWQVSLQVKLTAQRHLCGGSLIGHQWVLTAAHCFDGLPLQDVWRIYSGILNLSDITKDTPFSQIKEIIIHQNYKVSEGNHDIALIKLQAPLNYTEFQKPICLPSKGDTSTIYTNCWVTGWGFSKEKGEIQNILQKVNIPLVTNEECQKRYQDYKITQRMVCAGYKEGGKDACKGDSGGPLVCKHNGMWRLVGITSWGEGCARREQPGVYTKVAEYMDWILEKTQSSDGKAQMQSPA
# Sequence of human plasma kallikrein (P03952 20-390 limits assumed): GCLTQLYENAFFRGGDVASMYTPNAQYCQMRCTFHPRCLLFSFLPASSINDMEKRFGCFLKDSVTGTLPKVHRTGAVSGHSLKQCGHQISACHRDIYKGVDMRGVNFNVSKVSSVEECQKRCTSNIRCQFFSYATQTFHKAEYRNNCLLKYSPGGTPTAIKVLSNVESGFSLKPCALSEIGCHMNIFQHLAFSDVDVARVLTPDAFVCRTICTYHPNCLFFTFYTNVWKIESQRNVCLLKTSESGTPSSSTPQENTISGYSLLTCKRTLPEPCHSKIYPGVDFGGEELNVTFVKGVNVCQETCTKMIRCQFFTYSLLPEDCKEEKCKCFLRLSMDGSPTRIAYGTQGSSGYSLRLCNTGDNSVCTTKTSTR
# Protocol: Determination of inhibition activity for S-2302 decomposition
# (§1) An inhibitor sample is dissolved in a 0.05 M Tris-hydrochloric acid buffer solution (pH=7.8) to make the total volume to 400 μl. To this solution, 50 μl of a 2 mM S-2302 solution is added and the mixture is incubated at a temperature of 37° C. for 5 minutes in a constant temperature bath. Then, 50 μl of a 0.12 unit/ml human plasma kallikrein is added and the mixture is incubated at a temperature of 37° C. for 5 minutes. Thereafter, 50 μl of 50% acetic acid is added to terminate the reaction. The absorbance of the p-nitroaniline formed in the reaction mixture is measured at 405 nm. Thus, the concentration I50 (μmol) of the inhibitor sample, at which the absorbance is one half (i.e., 1/2) of that obtained in the absence of the inhibitor sample, is determined.
# [2] = molecular target: T1, human plasmin (Homo sapiens, UniProt P00747); experiment: Antiplasmin activity: inhibition of S-2251 decomposition; type: biochemical; details: Table 2; substrate S-2251, pH 7.4, 37° C.
# T1 sequence (P00747 581-810 limits assumed): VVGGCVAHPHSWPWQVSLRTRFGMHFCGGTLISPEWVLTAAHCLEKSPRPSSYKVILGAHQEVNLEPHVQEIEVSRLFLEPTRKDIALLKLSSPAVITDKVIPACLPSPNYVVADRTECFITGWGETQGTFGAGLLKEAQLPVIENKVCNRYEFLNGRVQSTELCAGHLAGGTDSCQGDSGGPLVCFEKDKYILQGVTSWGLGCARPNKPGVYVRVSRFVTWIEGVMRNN
# T1 sequence (P00747 97-580 limits assumed): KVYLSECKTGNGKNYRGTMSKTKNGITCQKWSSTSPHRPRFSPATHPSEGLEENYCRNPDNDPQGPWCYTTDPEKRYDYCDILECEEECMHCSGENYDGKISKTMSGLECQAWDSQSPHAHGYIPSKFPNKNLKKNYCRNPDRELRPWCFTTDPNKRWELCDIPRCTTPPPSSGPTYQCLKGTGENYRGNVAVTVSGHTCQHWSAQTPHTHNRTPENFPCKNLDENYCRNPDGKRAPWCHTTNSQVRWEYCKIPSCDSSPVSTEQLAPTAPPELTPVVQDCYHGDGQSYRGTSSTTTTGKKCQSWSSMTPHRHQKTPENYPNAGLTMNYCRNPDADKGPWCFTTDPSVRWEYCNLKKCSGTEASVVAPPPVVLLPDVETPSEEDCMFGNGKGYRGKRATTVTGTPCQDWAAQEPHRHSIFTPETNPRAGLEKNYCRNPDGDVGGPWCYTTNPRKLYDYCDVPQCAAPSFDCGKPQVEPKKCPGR
# Protocol: An inhibitor sample is dissolved in a 0.05 M Tris-hydrochloric acid buffer solution (pH=7.4) to make the total volume to 400 μl. […] Then, 50 μl of a 0.2 casein unit/ml human plasmin is added and the mixture is incubated at a temperature of 37° C. for 4 minutes. Thereafter, the reaction is stopped by adding 50 μl of 50% acetic acid.
# Thus, the concentration I50 (μmol) of the inhibitor sample, at which the absorbance is one half (i.e., 1/2) of that obtained in the absence of the inhibitor, is determined.
# [3] = molecular target: T2, bovine thrombin (Bos taurus, UniProt P00735); experiment: Antithrombin activity: inhibition of fibrin formation (fibrinogen); type: biochemical
# T2 construct: a 0.2 unit/ml bovine thrombin solution
# Protocol: (i) Determination of inhibition activity against fibrin formation
# An inhibitor sample is dissolved in a 0.18 M borate-physiological salt buffer solution (pH= 7.4) to make the total volume to 500 μl. […] Thus, a coagulation time is determined. The inhibitor concentration I50 (μmol), at which the coagulation time obtained in the absence of the inhibitor is extended twice, is determined.
# [4] = molecular target: T3, bovine trypsin (Bos taurus, UniProt P00760); experiment: Antitrypsin activity: inhibition of S-2238 decomposition; type: biochemical; details: Table 2; substrate S-2238, pH 8.1, 37° C.; read-out: Trypsin S-2238 I50
# T3 sequence (P00760 24-246): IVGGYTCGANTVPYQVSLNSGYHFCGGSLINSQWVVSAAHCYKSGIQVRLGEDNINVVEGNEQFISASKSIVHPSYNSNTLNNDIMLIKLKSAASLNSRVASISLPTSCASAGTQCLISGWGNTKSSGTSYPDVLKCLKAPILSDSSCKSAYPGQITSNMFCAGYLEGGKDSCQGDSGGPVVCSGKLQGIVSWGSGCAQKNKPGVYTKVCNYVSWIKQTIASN
# Protocol: Determination of inhibition activity against S-2238 decomposition
# An inhibitor sample is dissolved in a 0.05 M Tris-imidazole buffer solution (pH=8.1) and 125 μl of a 1 mM S-2238 solution is added to make the total volume to 1.20 ml. The mixture is incubated at a temperature of 37° C. for 5 minutes in a constant temperature bath. To this mixture, 0.05 ml of bovine trypsin is added and the absorbance, at 405 nm, of the p-nitroaniline formed per minute is determined at a temperature of 37° C. by using the so-called initial velocity method. Thus, the concentration I50 (μmol) of a inhibitor sample, at which the absorbance is one half (i.e., 1/2) of that obtained in the absence of the inhibitor sample, is determined.
# [5] = molecular target: T1, human plasmin; experiment: Antiplasmin activity: inhibition of fibrin decomposition; type: biochemical; details: Table 2, pH 7.4, 37° C., read-out: Plasmin Fibrin I50 (concentration doubling fibrin dissolution time)
# Protocol: (i) Determination of inhibition activity for fibrin decomposition
# An inhibitor sample is dissolved in a 0.18 M borate-physiological salt buffer solution (pH=7.4) to make the total volume to 600 μl. To this buffer solution, 200 μl of a 0.2% bovine fibrinogen, 100 μl of a 0.3 casein unit/ml human plasmin solution, and 100 μl of a 50 unit/ml bovine thrombin solution, all dissolved in the above-mentioned buffer, are added at a temperature of 37° C. in a constant temperature bath. Then, the dissolution time of the fibrin mass formed above is determined.
# [6] = molecular target: human urokinase (Homo sapiens, UniProt P00749); experiment: biochemical; details: read-out: Urokinase S-2444 I50
# Protocol: Determination of inhibition activity for S-2444 decomposition
# as §1, with “solution (pH=8.8)” for “solution (pH=7.8)”, “a 1” for “a 2”, “mM S-2444” for “mM S-2302”, “a 500” for “a 0.12”, “human urokinase” for “human plasma kallikrein”
# [7] = molecular target: T2, bovine thrombin; experiment: Antithrombin activity: inhibition of S-2238 decomposition; type: biochemical; details: Table 2; substrate S-2238, pH 8.3, 37° C.; read-out: Thrombin S-2238 I50
# Protocol: An inhibitor sample is dissolved in a 0.05 M Tris-hydrochloric acid buffer solution (pH=8.3) to make a total volume of 400 μl. […] Thus, the concentration I50 (μmol) of the inhibitor sample at which the absorbance is one half (i.e., 1/2) of that obtained in the absence of the inhibitor sample, is determined.
# [8] = Table 2, bovine fibrinogen, pH 7.4, 37° C., read-out: Thrombin Fibrinogen I50 (concentration doubling coagulation time)
# [9] = Table 2, substrate S-2444, pH 8.8, 37° C.
pIC50 [1],pIC50 [2],"pIC50 [3, 8]",pIC50 [4],pIC50 [5],"pIC50 [6, 9]",pIC50 [3],pIC50 [7],pIC50 [6],SMILES
< 3.00,< 3.00,< 3.00,< 3.82,< 3.00,< 3.30,,,,COC(=O)[C@@H](C)NC(=O)C(Cc1cccc(Oc2ccccc2)c1)NC(=O)[C@H]1CC[C@H](CN)CC1 (stereo partly shown) [Compound 16]
< 3.00,< 3.00,< 3.00,< 3.82,< 3.00,< 3.00,,,,NC[C@H]1CC[C@H](C(=O)NC(Cc2cccc(Oc3ccccc3)c2)C(=O)N2CCOCC2)CC1 (stereo partly shown) [Compound 19]
4.96,3.44,,< 4.82,3.72,< 3.30,< 3.30,,,NC[C@H]1CC[C@H](C(=O)NC(Cc2cccc(Oc3ccccc3)c2)C(=O)Nc2ccccn2)CC1 (stereo partly shown) [Compound 6]
< 3.40,3.49,,< 3.82,3.82,< 3.00,< 3.70,,,"NC[C@H]1CC[C@H](C(=O)NC(Cc2cccc(Oc3ccccc3)c2)C(N)=O)CC1 (mixture of isomers) [Compound 21, N-(trans-4-aminomethylcyclohexylcarbonyl)-3-phenoxy-DL-phenylalanine amide hydrochloride]"
< 3.00,3.00,< 3.00,< 3.82,3.24,< 3.30,,,,NC[C@H]1CC[C@H](C(=O)NC(Cc2cccc(Oc3ccccc3)c2)C(=O)N2CCC(C(=O)O)CC2)CC1 (stereo partly shown) [Compound 17]
< 3.00,< 3.00,,< 3.82,< 3.00,< 3.00,< 3.00,,,"NC[C@H]1CC[C@H](C(=O)NC(Cc2cccc(C(F)(F)F)c2)C(=O)N2CCOCC2)CC1 (mixture of isomers) [Compound 29, N-(trans-4-aminomethylcyclohexylcarbonyl)-3-trifluoromethyl-DL-phenylalanine morpholinoamide hydrochloride]"
3.47,3.03,< 3.30,4.00,3.47,< 3.30,,,,"COCCCNC(=O)C(Cc1cccc(Oc2ccccc2)c1)NC(=O)[C@H]1CC[C@H](CN)CC1 (mixture of isomers) [Compound 14, N-(trans-4-amnomethylcyclohexylcarboonyl)-3-phenoxy-DL-phenylalanine 3-methoxypropylamide hydrochloride]"
,,< 3.30,5.64,,,,< 3.00,,"NC[C@H]1CC[C@H](C(=O)NC(Cc2cccc(Oc3ccccc3)c2)C(=O)Nc2ccnc(Cl)c2)CC1 (mixture of isomers) [Compound 9, N-(trans-4-aminomethylcylohexylcarbonyl)-3-phenoxy-DL-phenylalanine 4-(2-chloro)pyridylamide dihydrochloride]"
5.89,4.34,,4.82,4.82,,< 4.00,,< 4.00,Cc1ccc(NC(=O)C(Cc2cccc(Oc3ccccc3)c2)NC(=O)[C@H]2CC[C@H](CN)CC2)cc1 (stereo partly shown) [Compound 1]
< 3.00,< 4.00,< 3.00,< 3.82,< 4.22,< 3.00,,,,COC(=O)[C@H]1CCCN1C(=O)C(Cc1cccc(Oc2ccccc2)c1)NC(=O)[C@H]1CC[C@H](CN)CC1 (stereo partly shown) [Compound 20]
5.92,4.51,< 4.00,5.64,4.96,< 4.00,,,,CCOC(=O)c1cccc(NC(=O)C(Cc2cccc(Oc3ccccc3)c2)NC(=O)[C@H]2CC[C@H](CN)CC2)c1 (stereo partly shown) [Compound 3]
3.22,,,< 3.82,,< 3.00,,< 3.00,,"NC[C@H]1CC[C@H](C(=O)NC(Cc2cccc(Oc3ccccc3)c2)C(=O)O)CC1 (mixture of isomers) [Compound 58, N-(trans-4-aminomethylcyclohexylcarbonyl)-3-phenoxy-DL-phenylalanine]"
< 3.30,3.37,< 4.00,< 3.82,< 4.00,< 3.00,,,,CCOC(=O)C1CCN(C(=O)C(Cc2cccc(Oc3ccccc3)c2)NC(=O)[C@H]2CC[C@H](CN)CC2)CC1 (stereo partly shown) [Compound 18]
< 3.00,3.55,< 3.00,< 3.82,3.36,< 3.00,,,,NC[C@H]1CC[C@H](C(=O)NC(Cc2cccc(Oc3ccc(Br)cn3)c2)C(=O)N2CCOCC2)CC1 (stereo partly shown) [Compound 27]
< 3.00,< 3.00,< 3.00,4.06,3.59,< 3.00,,,,COCCCNC(=O)C(Cc1cccc(C(F)(F)F)c1)NC(=O)[C@H]1CC[C@H](CN)CC1 (stereo partly shown) [Compound 28]
5.24,3.59,< 3.00,4.60,3.96,3.46,,,,"CCOC(=O)C(Cc1cccc(Oc2ccccc2)c1)NC(=O)[C@H]1CC[C@H](CN)CC1 (mixture of isomers) [Compound 57, N-(trans-4-aminomethylcyclohexylcarbonyl)-3-phenoxy-DL-phenylalanine ethyl ester hydrochloride]"
3.46,3.12,< 3.00,5.09,3.21,< 3.30,,,,COCCCNC(=O)C(Cc1cccc(C(=O)c2ccccc2)c1)NC(=O)[C@H]1CC[C@H](CN)CC1 (stereo partly shown) [Compound 23]
5.66,3.92,< 4.60,4.82,< 4.60,4.00,,,,CC(=O)c1ccc(NC(=O)C(Cc2cccc(Oc3ccccc3)c2)NC(=O)c2ccc(NC(=N)N)cc2)cc1 (stereo not shown) [Compound 32]
